According to patent publication US8486927B2 (Thar Pharmaceuticals, priority 2007, dated 2013):

Legend:
[1] = In-vivo absorption test in rats, oral gavage, lamotrigine in blood serum by HPLC-UV; design: species or system Rats Sprague-Dawley; conditions: for Plasma concentration of lamotrigine in rats: rats (N = 5), oral gavage, 10 mg/kg as lamotrigine
Experimental: Rats historically have been used in safety evaluation and PK screening studies and are recommended by appropriate regulatory agencies.
Dose preparation; dose is prepared and suspended in 1 ml of 5% PEG 400 with 95% methylcellulose solution (weight percentage); methylcellulose solution is prepared by dissolving 0.5% methylcellulose in water (weight percentage).
The machine was operated by Total Chrome Workstation (Perkin Elmer Instruments LLC).

[2] = cited from earlier work
[3] = Sprague-Dawley, rat, plasma, po, 10 mg/kg

SMILES | Plasma concentration of lamotrigine in rats ([1]; time 0 hrs) [µg/mL] | Plasma concentration of lamotrigine in rats ([1]; time 0.5 hrs) [µg/mL] | Plasma concentration of lamotrigine in rats ([1]; time 1 hrs) [µg/mL] | Plasma concentration of lamotrigine in rats ([1]; time 2 hrs) [µg/mL] | Plasma concentration of lamotrigine in rats ([1]; time 3 hrs) [µg/mL] | Plasma concentration of lamotrigine in rats ([1]; time 4 hrs) [µg/mL] | Plasma concentration of lamotrigine in rats ([1]; time 8 hrs) [µg/mL] | Plasma concentration of lamotrigine in rats ([1]; time 12 hrs) [µg/mL] | Plasma concentration of lamotrigine in rats ([1]; time 24 hrs) [µg/mL] | extent of absorption, solid versus solution ([2]; drug delivered as a solid or as a solution) | extent of absorption by site of delivery ([2]; drug delivered to any point in the gastrointestinal tract between the stomach and the ascending colon) | concentration at 0 h [1, 3] [µg/mL] | concentration at 0.5 h [1, 3] [µg/mL] | concentration at 1 h [1, 3] [µg/mL] | concentration at 2 h [1, 3] [µg/mL] | concentration at 3 h [1, 3] [µg/mL] | concentration at 4 h [1, 3] [µg/mL] | concentration at 8 h [1, 3] [µg/mL] | concentration at 12 h [1, 3] [µg/mL] | concentration at 24 h [1, 3] [µg/mL]
NC(=O)c1cccnc1.Nc1nnc(-c2cccc(Cl)c2Cl)c(N)n1 [Cocrystal 2] | 0 | 1.184 | 1.561 | 1.605 | 1.757 | 1.609 | 1.823 | 1.84 | 0.9718 | – | – | – | – | – | – | – | – | – | – | –
Nc1nnc(-c2cccc(Cl)c2Cl)c(N)n1 [Lamotrigine, 6-(2,3-dichlorophenyl)-1,2,4-triazine-3,5-diamine] | – | – | – | – | – | – | – | – | – | similar | consistent | 0 | 1.59 | 2.24 | 2.37 | 2.42 | 2.48 | 2.68 | 2.86 | 2.13
